Source: patent US9345677B2, “Compositions, methods and kits relating to HER-2 cleavage” (Incyte Corporation, priority 2003, dated 2016)

How the values were obtained:
MMP12 = MMP12 (Homo sapiens, UniProt P39900); assay: MMP12 fluorogenic peptide biochemical assay
Description: (§1) Source of enzymes for biochemical assays: Except for ADAM17 and MT1-MMP, all recombinant human MMPs and ADAMs were obtained from R&D Systems (Minneapolis, Minn.). […] MT1-MMP was obtained from US Biological (Swampscott, Mass.) with a catalog number of M2429. Porcine ADAM17 was purified in house from porcine spleen.
(§2) Substrates for biochemical assays: Fluorogenic Peptide substrate, (7-methoxycoumarin-4-yl)acetyl-Pro-Leu-Gly-Leu-(3-[2,4-dinitrophenyl]-L-2,3-diaminopropionyl)-Ala-Arg-NH2 (SEQ ID NO: 46), was obtained from R&D Systems (Minneapolis, Minn.) with a catalog number of ES001. It was used as substrate for MMP1, MMP2, MMP7, MMP8, MMP9, MMP12, MMP13, and MT1-MMP. Fluorogenic Peptide substrate, (7-methoxycoumarin-4-yl)acetyl-Arg-Pro-Lys-Pro-Val-Glu-Nva-Trp-Arg-Lys(2,4-dinitrophenyl)-NH2 (SEQ ID NO: 47), was obtained from R&D Systems with a catalog number of ES002. It was used as substrate for MMP3 and MMP10. […]
(§3) In general, 5 mM compound stock was prepared in DMSO. […] The plate was read on a plate reader with excitation of 320 nm and emission of 405 nm. Percentage of inhibition was calculated for each concentration and IC50 value was generated from curve fitting. […]

MMP2 = target: T1, MMP2 (Homo sapiens, UniProt P08253); assay: MMP2 fluorogenic peptide biochemical assay
T1 construct: purchased R&D Systems 902-MP
T1 sequence (P08253 110-660): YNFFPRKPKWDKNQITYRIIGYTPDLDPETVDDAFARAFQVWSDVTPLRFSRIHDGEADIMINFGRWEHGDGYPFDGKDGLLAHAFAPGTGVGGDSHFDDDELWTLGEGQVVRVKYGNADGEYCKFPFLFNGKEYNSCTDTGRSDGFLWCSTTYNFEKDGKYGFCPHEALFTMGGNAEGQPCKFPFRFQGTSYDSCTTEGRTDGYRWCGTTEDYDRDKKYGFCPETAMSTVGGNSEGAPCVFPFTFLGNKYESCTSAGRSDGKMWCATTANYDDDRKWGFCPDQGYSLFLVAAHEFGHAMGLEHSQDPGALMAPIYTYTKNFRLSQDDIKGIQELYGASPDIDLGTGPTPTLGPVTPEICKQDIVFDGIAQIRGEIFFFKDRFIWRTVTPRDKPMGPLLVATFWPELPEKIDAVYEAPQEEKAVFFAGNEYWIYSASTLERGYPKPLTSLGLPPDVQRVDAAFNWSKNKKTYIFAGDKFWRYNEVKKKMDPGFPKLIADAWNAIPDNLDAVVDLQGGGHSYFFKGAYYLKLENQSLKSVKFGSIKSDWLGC

MMP3 = target: T2, MMP3 (Homo sapiens, UniProt P08254); assay: MMP3 fluorogenic peptide biochemical assay
T2 construct: purchased R&D Systems 513-MP
Description: as §1, §2, §3

BT474 cells = assay: Cell proliferation assay (cell counting, BrdU incorporation); type: cell-based, human; settings: Her-2 overexpressing BT474 cells
Description: Proliferation assays were routinely performed with two protocols: cell counting and BrdU incorporation assay. For cell counting, cells (1×10^5) were seeded in each well of 12 well plates and cultured overnight. Then, cells were treated for 6 days with drugs and compounds as indicated in individual experiments. Culture media were replaced with fresh media containing the same concentrations of drugs and compounds after the first 3 days of treatment. Viable cells were counted with hemacytometers immediately after trypan blue staining.
The BrdU incorporation assay was performed using a colorimetric Cell Proliferation ELISA kit per manufacturer's instruction (#1647229, Roche Molecular Biochemicals), measuring DNA synthesis in proliferating cells. Briefly, cells (5−10×10^3) were seeded in each well of 96 well plates and cultured overnight. […] Finally, 100 μl/well of substrate solution was added and the results were obtained using a microplate reader (Spectra Max PLUS, Molecular Devices) during color development. Multiple readings at various time points were obtained and results in the linear range of the assay were obtained. […]
After varying periods of cell culture (2-6 days), the cell cultures were harvested and cell growth was assessed by cell count and BRdU incorporation using standard protocols.

Sequence of MMP12 (P39900 106-470): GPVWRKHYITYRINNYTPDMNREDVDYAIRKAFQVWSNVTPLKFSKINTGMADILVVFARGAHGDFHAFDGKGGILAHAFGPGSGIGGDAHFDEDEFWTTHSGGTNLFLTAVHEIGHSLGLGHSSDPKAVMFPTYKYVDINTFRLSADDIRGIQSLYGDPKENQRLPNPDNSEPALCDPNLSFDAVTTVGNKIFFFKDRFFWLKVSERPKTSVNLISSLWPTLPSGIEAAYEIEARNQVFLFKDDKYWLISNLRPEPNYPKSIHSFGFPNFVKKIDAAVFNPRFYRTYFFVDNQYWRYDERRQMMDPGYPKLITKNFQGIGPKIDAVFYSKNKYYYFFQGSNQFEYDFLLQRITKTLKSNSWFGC
T2 sequence (P08254 100-477): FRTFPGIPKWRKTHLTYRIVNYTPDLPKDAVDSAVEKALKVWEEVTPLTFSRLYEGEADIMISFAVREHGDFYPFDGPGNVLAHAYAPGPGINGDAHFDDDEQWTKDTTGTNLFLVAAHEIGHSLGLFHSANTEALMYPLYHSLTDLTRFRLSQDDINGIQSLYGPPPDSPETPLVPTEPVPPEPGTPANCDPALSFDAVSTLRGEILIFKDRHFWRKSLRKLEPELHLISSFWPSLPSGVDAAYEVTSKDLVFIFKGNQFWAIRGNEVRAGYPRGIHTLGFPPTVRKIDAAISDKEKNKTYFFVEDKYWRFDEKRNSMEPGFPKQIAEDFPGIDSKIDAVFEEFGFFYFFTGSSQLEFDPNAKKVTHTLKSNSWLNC

- IC50 (MMP12): 584 nM
- MMP2 activity (MMP2): inactive
- MMP3 activity (MMP3): inactive
Structure (SMILES): Cc1cc([N+](=O)[O-])ccc1N1CCN(C(=O)[C@@H]2[C@@H](C(=O)NO)CC3(CC3)CN2C)CC1 [Compound 5, (6S,7S)-N-hydroxy-5-methyl-6-{[4-(2-methyl-4-nitrophenyl)piperazin-1-yl]-carbonyl}-5-azaspiro[2.5]octane-7-carboxamide]
- effect on antiproliferative activity of a suboptimal dose of Herceptin (BT474 cells): synergistically enhances
